Assay results taken from ChEMBL document CHEMBL1147878, “Synthesis and in vitro antimicrobial activity of new 2-[p-substituted-benzyl]-5-[substituted-carbonylamino]benzoxazoles” (2007).
Converted amounts (≈) assume the structure as drawn.

What was measured:
Format in all cases: functional
Staphylococcus aureus = test: Antibacterial activity against Staphylococcus aureus ATCC 25923 after 24 hrs by serial dilution method
Bacillus subtilis = test: Antibacterial activity against Bacillus subtilis ATCC 6633 after 24 hrs by serial dilution method
Escherichia coli = test: Antibacterial activity against Escherichia coli ATCC 23556 after 24 hrs by serial dilution method
Pseudomonas aeruginosa = test: Antibacterial activity against Pseudomonas aeruginosa ATCC 10145 after 24 hrs by serial dilution method
Candida albicans = test: Antifungal activity against Candida albicans after 48 hrs by serial dilution method
Pichia kudriavzevii = test: Antifungal activity against Candida krusei ATCC 6258 after 48 hrs by serial dilution method; settings: ATCC 6258, 48 h
Nakaseomyces glabratus = test: Antifungal activity against Candida glabrata after 48 hrs by serial dilution method

Compound | MIC (Staphylococcus aureus; ATCC 25923, 24 h) [µg/mL] | MIC (Bacillus subtilis; ATCC 6633, 24 h) [µg/mL] | MIC (Escherichia coli; ATCC 23556, 24 h) [µg/mL] | MIC (Pseudomonas aeruginosa; ATCC 10145, 24 h) [µg/mL] | MIC (Candida albicans) [µg/mL] | MIC (Pichia kudriavzevii) [µg/mL] | MIC (Nakaseomyces glabratus) [µg/mL] | MIC (Staphylococcus aureus) [µg/mL] | MIC (Bacillus subtilis) [µg/mL] | MIC (Escherichia coli) [µg/mL] | MIC (Pseudomonas aeruginosa) [µg/mL]
Cc1ccc(C(=O)Nc2ccc3oc(Cc4ccc(Cl)cc4)nc3c2)cc1C | 12.5 (≈ 32 µM) | 25 (≈ 64 µM) | 50 (≈ 128 µM) | 50 (≈ 128 µM) | 100 (≈ 256 µM) | 12.5 (≈ 32 µM) | 50 (≈ 128 µM) |  |  |  | 
Clc1ccc(COC(Cn2ccnc2)c2ccc(Cl)cc2Cl)c(Cl)c1 (stereo not drawn) [MICONAZOLE] |  |  |  |  | 3.12 (≈ 7.5 µM) | 1.56 (≈ 3.75 µM) | 3.12 (≈ 7.5 µM) |  |  |  | 
Clc1ccccc1C(c1ccccc1)(c1ccccc1)n1ccnc1 [CLOTRIMAZOLE] |  |  |  |  | 6.25 (≈ 18.1 µM) |  |  |  |  |  | 
O=C(Nc1ccc2oc(Cc3ccc(Cl)cc3)nc2c1)c1ccc(Br)cc1 | 50 (≈ 113 µM) | 50 (≈ 113 µM) | 50 (≈ 113 µM) | 50 (≈ 113 µM) | 50 (≈ 113 µM) | 100 (≈ 226 µM) | 100 (≈ 226 µM) |  |  |  | 
Cc1ccc(CC(=O)Nc2ccc3oc(Cc4ccccc4)nc3c2)cc1 | 25 (≈ 70.1 µM) | 25 (≈ 70.1 µM) | 25 (≈ 70.1 µM) | 25 (≈ 70.1 µM) | 25 (≈ 70.1 µM) | 6.25 (≈ 17.5 µM) | 12.5 (≈ 35.1 µM) |  |  |  | 
Cc1ccc(C)c(C(=O)Nc2ccc3oc(Cc4ccc(Cl)cc4)nc3c2)c1 | 50 (≈ 128 µM) | 12.5 (≈ 32 µM) | 12.5 (≈ 32 µM) | 50 (≈ 128 µM) | 6.25 (≈ 16 µM) | 12.5 (≈ 32 µM) | 25 (≈ 64 µM) |  |  |  | 
Cc1ccc(C(=O)Nc2ccc3oc(Cc4ccccc4)nc3c2)cc1C | 50 (≈ 140 µM) | 50 (≈ 140 µM) | 50 (≈ 140 µM) | 25 (≈ 70.1 µM) | 25 (≈ 70.1 µM) | 50 (≈ 140 µM) | 50 (≈ 140 µM) |  |  |  | 
O=C(Cc1ccc(Br)cc1)Nc1ccc2oc(Cc3ccccc3)nc2c1 | 25 (≈ 59.3 µM) | 25 (≈ 59.3 µM) | 25 (≈ 59.3 µM) | 25 (≈ 59.3 µM) | 25 (≈ 59.3 µM) | 12.5 (≈ 29.7 µM) | 3.12 (≈ 7.41 µM) |  |  |  | 
CC1(C)S[C@@H]2[C@H](NC(=O)[C@H](N)c3ccc(O)cc3)C(=O)N2[C@H]1C(=O)O [AMOXICILLIN] | 1.56 (≈ 4.27 µM) | 1.56 (≈ 4.27 µM) | 3.12 (≈ 8.54 µM) | > 200 |  |  |  |  |  |  | 
O=C(Cc1ccc(F)cc1)Nc1ccc2oc(Cc3ccccc3)nc2c1 | 50 (≈ 139 µM) | 25 (≈ 69.4 µM) | 25 (≈ 69.4 µM) | 25 (≈ 69.4 µM) | 50 (≈ 139 µM) | 12.5 (≈ 34.7 µM) | 12.5 (≈ 34.7 µM) |  |  |  | 
O=C(Nc1ccc2oc(Cc3ccccc3)nc2c1)c1ccccc1 | 200 (≈ 609 µM) | 50 (≈ 152 µM) | 100 (≈ 305 µM) | 100 (≈ 305 µM) | 50 (≈ 152 µM) | 12.5 (≈ 38.1 µM) | 25 (≈ 76.1 µM) |  |  |  | 
O=C(Nc1ccc2oc(Cc3ccc(Cl)cc3)nc2c1)c1ccc(Cl)c([N+](=O)[O-])c1 | 50 (≈ 113 µM) | 50 (≈ 113 µM) | 50 (≈ 113 µM) | 50 (≈ 113 µM) | 25 (≈ 56.5 µM) | 25 (≈ 56.5 µM) | 25 (≈ 56.5 µM) |  |  |  | 
O=C(Cc1ccc(Cl)cc1)Nc1ccc2oc(Cc3ccc(Cl)cc3)nc2c1 | 50 (≈ 122 µM) | 25 (≈ 60.8 µM) | 50 (≈ 122 µM) | 25 (≈ 60.8 µM) | 50 (≈ 122 µM) | 6.25 (≈ 15.2 µM) | 12.5 (≈ 30.4 µM) |  |  |  | 
Cc1ccc(C)c(C(=O)Nc2ccc3oc(Cc4ccccc4)nc3c2)c1 | 50 (≈ 140 µM) | 25 (≈ 70.1 µM) | 50 (≈ 140 µM) | 50 (≈ 140 µM) | 25 (≈ 70.1 µM) | 25 (≈ 70.1 µM) | 25 (≈ 70.1 µM) |  |  |  | 
GENTAMICIN |  |  |  |  |  |  |  | 3.12 | 1.56 | 12.5 | 12.5
CCc1ccc(C(=O)Nc2ccc3oc(Cc4ccc(Cl)cc4)nc3c2)cc1 | 50 (≈ 128 µM) | 50 (≈ 128 µM) | 50 (≈ 128 µM) | 50 (≈ 128 µM) | 25 (≈ 64 µM) | 25 (≈ 64 µM) | 25 (≈ 64 µM) |  |  |  | 
CCc1ccc(C(=O)Nc2ccc3oc(Cc4ccccc4)nc3c2)cc1 | 50 (≈ 140 µM) | 50 (≈ 140 µM) | 50 (≈ 140 µM) | 50 (≈ 140 µM) | 25 (≈ 70.1 µM) | 25 (≈ 70.1 µM) | 12.5 (≈ 35.1 µM) |  |  |  | 
CC1(C)S[C@@H]2[C@H](NC(=O)[C@H](N)c3ccccc3)C(=O)N2[C@H]1C(=O)O [AMPICILLIN] | 1.56 (≈ 4.46 µM) | 1.56 (≈ 4.46 µM) | 12.5 (≈ 35.8 µM) | > 200 |  |  |  |  |  |  | 
O=C(Cc1ccc(Cl)cc1)Nc1ccc2oc(Cc3ccccc3)nc2c1 | 100 (≈ 265 µM) | 100 (≈ 265 µM) | 50 (≈ 133 µM) | 50 (≈ 133 µM) | 25 (≈ 66.3 µM) | 25 (≈ 66.3 µM) | 25 (≈ 66.3 µM) |  |  |  | 
O=C(Cc1ccccc1)Nc1ccc2oc(Cc3ccccc3)nc2c1 | 25 (≈ 73 µM) | 25 (≈ 73 µM) | 25 (≈ 73 µM) | 50 (≈ 146 µM) | 12.5 (≈ 36.5 µM) | 12.5 (≈ 36.5 µM) | 25 (≈ 73 µM) |  |  |  | 
Cc1ccc(C(=O)Nc2ccc3oc(Cc4ccccc4)nc3c2)s1 | 25 (≈ 71.8 µM) | 25 (≈ 71.8 µM) | 25 (≈ 71.8 µM) | 25 (≈ 71.8 µM) | 12.5 (≈ 35.9 µM) | 6.25 (≈ 17.9 µM) | 6.25 (≈ 17.9 µM) |  |  |  | 
